What was measured:
[1] = test system: Drug Induced Cytopenia; experiment: Drug induced cytopenia treated by TPA: blood cell counts after DNR + Ara-C; type: in vivo, mice; settings: for PLT / RBC / WBC: n = 10
Method: Ninety (90) adult mice were randomly assigned to 9 groups (10 mice per group). No drug was administered in Control group. Model group was given DNR (6 mg/kg)+Ara-C (150 mg/kg) on Day 0. The rest of the 7 groups were given DNR (6 mg/kg)+Ara-C (150 mg/kg) on Day 0, and each group on Day 7, Day 8, and Day 9 was administered with one of the following drugs: G-CSF (10 μg/kg), EPO (500 IU/kg), TPA (12.5 μg/kg), TPA (25 μg/kg), TPA (50 μg/kg), TPA (12.5 μg/kg)+GCSF (10 μg/kg), or TPA (12.5 μg/kg)+EPO (500 IU/kg).

[2] = test system: neutropenia and thrombocytopenia; experiment: Phase 2a study of phorbol ester in AML patients who receive induction chemotherapy; type: in vivo, human; settings: AML patients after 3+7 induction; TPA 0.125 mg/m^2 IV with G-CSF 400 μg support; standard deviation of 5 days; usual 20±3 days
Method: This is a single-arm, open label study. Ten (10) patients receive standard induction chemotherapy with idarubicin (12 mg/m2) or daunorubicin (60 mg/m2) on days 1, 2, 3 and Ara-C continuous (100-200 mg/m2/day) infusion on days 1-7. On Day 8 or 24 hours after completion of all scheduled Ara-C infusion, TPA is started at 0.125 mg/m^2 IV every two days, in addition to G-CSF (400 μg subcutaneously daily) support until absolute neutrophil count (ANC) above 1000/μL for two consecutive days.”
This study is designed to examine the efficacy of TPA as a supportive care agent to enhance bone marrow recovery in AML patients after induction chemotherapy. Study Objectives: • 1. Evaluate the safety and tolerability of TPA in AML patients after induction chemotherapy • 2. Evaluate preliminary efficacy in shortening of the duration of neutropenia and thrombocytopenia in AML patients after induction chemotherapy • 3. […] AML should be classified by FAB classification, and all subtypes are allowed and recorded during enrollment, except patients with M3 or acute promyelocytic leukemia. • 3. […]
Evaluation of neutropenia and thrombocytopenia after induction chemotherapy is done by daily hematological tests, including complete blood count and differential count. […] The duration of neutropenia and thrombocytopenia is assessed separately and the ANC and platelet counts should be plotted in a diagram for each patient. […]

[3] = 8 days after DNR + Ara-c, 1 day after 1st dose, G-CSF 10, EPO 500, TPA 12.5, TPA + GCSF 12.5 + 10, TPA + EPO 12.5 + 500 (μg·kg^−1)
[4] = 8 days after DNR + Ara-c, 1 day after 1st dose, TPA 25 μg·kg^−1
[5] = 8 days after DNR + Ara-c, 1 day after 1st dose, TPA 50 μg·kg^−1
[6] = 9 days after DNR + Ara-c, 1 day after 2nd dose, G-CSF 10, EPO 500, TPA 12.5, TPA + GCSF 12.5 + 10, TPA + EPO 12.5 + 500 (μg·kg^−1)
[7] = 9 days after DNR + Ara-c, 1 day after 2nd dose, TPA 25 μg·kg^−1
[8] = 9 days after DNR + Ara-c, 1 day after 2nd dose, TPA 50 μg·kg^−1
[9] = 10 days after DNR + Ara-c, 1 day after 3rd dose, G-CSF 10, EPO 500, TPA 12.5, TPA + GCSF 12.5 + 10, TPA + EPO 12.5 + 500 (μg·kg^1)
[10] = 10 days after DNR + Ara-c, 1 day after 3rd dose, TPA 25 μg·kg^1
[11] = 10 days after DNR + Ara-c, 1 day after 3rd dose, TPA 50 μg·kg^1

CCCCCCCCCCCCCC(=O)O[C@@H]1[C@@H](C)[C@@]2(O)[C@@H](C=C(CO)C[C@]3(O)C(=O)C(C)=C[C@@H]23)[C@@H]2C(C)(C)[C@]12OC(C)=O [TPA, 12-O-tetradecanoylphorbol-13-acetate]
PLT [1, 3]: 395 ± 30.41^(1)(1)(2)(2) ×10^9/L | RBC [1, 3]: 6.08 ± 0.49^(1)(1)(2)(3)(3)(4) ×10^12/L | WBC [1, 3]: 6.4 ± 0.62^(2)(2) ×10^9/L | PLT [1, 4]: 391 ± 20.42^(1)(1)(2)(2) ×10^9/L | RBC [1, 4]: 7.09 ± 0.23^(1)(1)(2)(2)(3)(3)(5) ×10^12/L | WBC [1, 4]: 6.4 ± 0.35^(2)(2) ×10^9/L | PLT [1, 5]: 413 ± 9.64^(1)(1)(2)(2) ×10^9/L | RBC [1, 5]: 7.10 ± 0.24^(1)(1)(2)(2)(3)(3)(5) ×10^12/L | WBC [1, 5]: 6.5 ± 0.75^(2)(2) ×10^9/L | PLT [1, 6]: 965 ± 76.23^(1)(1)(2)(2) ×10^9/L | RBC [1, 6]: 7.47 ± 0.55^(1)(1)(2)(2)(3)(3) ×10^12/L | WBC [1, 6]: 6.84 ± 0.44^(2) ×10^9/L | PLT [1, 7]: 951 ± 70.29^(1)(1)(2)(2) ×10^9/L | RBC [1, 7]: 7.34 ± 0.87^(1)(1)(2)(2)(3)(3) ×10^12/L | WBC [1, 7]: 6.72 ± 0.50^(2) ×10^9/L | PLT [1, 8]: 999 ± 45.67^(1)(1)(2)(2) ×10^9/L | RBC [1, 8]: 7.30 ± 0.49^(1)(1)(2)(2)(3)(3) ×10^12/L | WBC [1, 8]: 6.86 ± 0.39^(2) ×10^9/L | PLT [1, 9]: 1447 ± 78.09^(2)(2) ×10^9/L | RBC [1, 9]: 7.59 ± 0.67^(1)(1)(2)(2)(3)(3) ×10^12/L | WBC [1, 9]: 9.51 ± 0.85^(1)(1)(2)(2)(4)(4) ×10^9/L | PLT [1, 10]: 1465 ± 72.81^(2)(2) ×10^9/L | RBC [1, 10]: 8.26 ± 0.63^(1)(1)(2)(2)(3)(3)(5) ×10^12/L | WBC [1, 10]: 9.69 ± 0.85^(1)(1)(2)(2)(4)(4) ×10^9/L | RBC [1, 11]: 8.18 ± 0.55^(1)(1)(2)(2)(3)(3)(5) ×10^12/L | WBC [1, 11]: 9.90 ± 0.64^(1)(1)(2)(2)(4)(4) ×10^9/L | PLT ([1]; 10 days after DNR + Ara-c, 1 day after 3rd dose, TPA 50 μg·kg^−1): 1463 ± 80.33^(2)(2) ×10^9/L | production of WBC, RBC, and platelet ([1]; conclusion of Example 6): promoted the production of WBC, RBC, and platelet | Duration of neutropenia or thrombocytopenia [2]: 12 days
